Laboratory results taken from US5470879A, “Treatment of non-insulin-dependent diabetes” (Laboratories Monal, priority 1992, dated 1995).
Read-outs that look alike come from different tables or passages of the source.

Assays:
[1] = test system: isolated islets of Langerhans of rat pancreas; assay: Insulin secretion of isolated islets of Langerhans of rat pancreas (8.3 mM glucose, 1 hour); assay type: cell-based, Wistar rats
Method: (§1) In these examples, the pancreatic hormones (insulin and glucagon) were evaluated by radioimmunoassays.
This method, which has the advantage of necessitating only a small amount of substance, permits a direct study of the effects of the composition on pancreatic endocrine cells, especially insulin-secreting B cells, to the exclusion of any interference with the exocrine and related tissues.
The effect of different concentrations of 4-hydroxyisoleucine on insulin secretion was investigated on isolated islets of Wistar rats, incubated in the presence of 8.3 mM glucose (1.5 g/l) for 1 hour. The results obtained are recorded in FIG. 1, in which the histograms represent the insulin secretion measured over 60 minutes for each dose of 4-hydroxyisoleucine.
By way of comparison, the effects of two structural analogues of 4-hydroxyisoleucine, i.e. isoleucine and leucine, were observed under the same conditions, and it could be established that, with these two substances, the stimulatory effect on insulin secretion is apparent only with concentrations 50 to 100 times as high.

[2] = test system: isolated and perfused rat pancreas; assay: Isolated and perfused rat pancreas: insulin secretion, vascular flow, glucagon (8.3 mM glucose); conditions: for Insulin secretion: glucose alone 810 ± 83
Method: as §1
To carry out this test, the pancreas was completely isolated from all the other neighbouring organs and tissues (spleen, stomach, duodenum, epiploic fat) and perfused in an open circuit with a physiological solution in a perfusion chamber. This preparation has the advantage of preserving the functional and vascular integrity of the organ while depriving it of the regulatory influences (humoral or nervous) to which it is normally subjected.
In this example, the experiments were carried out in the presence of an 8.3 mM concentration of glucose. Under these conditions, the effect on insulin secretion of a perfusion of 4-hydroxyisoleucine at a concentration of 200 μM for 10 minutes was studied. […] The perfusion of the 4-hydroxyisoleucine is indicated by the rectangular box with the lines extending downwardly from opposite sides of the box, near the top of the Figure.
The amounts of insulin secreted during the 10 minutes of perfusion are shown below: […]

[3] = assay type: in vivo, Wistar rats
Method: as §1
(§2) Blood sugar level was assayed using a Technicon autoanalyzer by the potassium ferricyanide method.
The results were subjected to a variance analysis followed by the multiple comparison test.
(§3) During this experiment, Wistar rats were anaesthetized and then provided with catheters in both jugular veins. One catheter enables blood samples needed for the assay of plasma glucose and plasma insulin to be taken, the other catheter is used for the intravenous injection of the test substance.

[4] = Intravenous glucose tolerance test (IVGTT) in anaesthetized normal rats fed ad libitum; assay type: in vivo
Method: as §2, §3
Still in anaesthetized normal rats previously fed ad libitum, an intravenous glucose tolerance test was carried out.
Dissolved glucose was administered intravenously at a dose of 0.3 g/kg in one of the two jugular veins of the rat. […] In FIG. 3, "o" indicates the values observed when administering glucose alone, while ".cndot." indicates the values observed during the administration of glucose plus 4-hydroxyisoleucine.

[5] = Gastric intubation in fasted conscious normal dogs: blood insulin and sugar levels; assay type: in vivo; conditions: 9 mg/kg by gastric intubation
Method: as §1, §2
During a complementary experiment in dogs, we investigated whether 4-hydroxyisoleucine can be active after oral administration, and whether, in this case, this substance retains its insulin-secreting property and consequently its capacity to improve glucose tolerance.
(§4) Using conscious normal dogs kept fasted for 18 hours, 4-hydroxyisoleucine is dissolved in physiological saline and administered by gastric intubation at a dose of 9 mg/kg.
Blood samples drawn from one of the two jugular veins enabled the blood insulin and sugar levels of these animals to be evaluated. […] The arrows near the top of FIGS. 4A and 4B represent the approximate time of administration of the 4-hydroxyisoleucine.

[6] = Orally induced hyperglycaemia (OGTT) in fasted conscious normal dogs; assay type: in vivo
Method: as §2, §4
Dissolved glucose was administered by gastric intubation at a dose of 1 g/kg.
In FIG. 5, "o" represents values observed upon administering glucose alone; ".cndot." represents values observed in a trial in which glucose plus 4-hydroxyisoleucine is administered. The arrow toward the top of FIG. 5 represents the point of administration of the glucose or glucose plus 4-hydroxyisoleucine. When 4-hydroxyisoleucine (9 mg/kg) is added to the glucose solution administered by gastric intubation, the blood sugar level reaches only 120 mg/dl at the 30th minute, i.e. only +31%.

[7] = Acute intraperitoneal toxicity in Swiss mice; assay type: in vivo
Method: The acute toxicity was determined in Swiss mice of both sexes on intraperitoneal administration of a single dose of 1 gram per kilo of 4-hydroxyisoleucine. […] The LDo (zero lethal dose) is greater than 1 gram per kilo under our experimental conditions.

[8] = 9 mg/kg I.V., -2 min (before injection)
[9] = 9 mg/kg I.V., -10 min (before injection)
[10] = 9 mg/kg I.V., -15 min (before injection)

C[C@@H]([C@H](C)O)[C@H](N)C(=O)O [4-hydroxyisoleucine]
minimal effective concentration ([1]; Rattus norvegicus, 1 h, read-out: concentration at which a stimulatory effect on insulin secretion is apparent): 200 µM | dose dependence of stimulation of insulin secretion ([1]; isolated rat islets, 8.3 mM glucose): increases slightly with the dose | mode of stimulation of insulin secretion ([1]; summary of "in vitro" tests): direct effect on the B cell of the islet of Langerhans | Insulin secretion ([2]; 50 μM): 1232 ± 93 ng/10 min | Insulin secretion ([2]; 200 μM): 1520 ± 154 ng/10 min | effect on insulin secretion (time course) ([2]; 200 μM, perfusion for 10 minutes): stimulation is immediate and in two phases, and persists throughout the period of the perfusion | Insulin secretion ([2]; 500 μM): 2206 ± 213 ng/10 min | concentration dependence of stimulatory effect on insulin secretion ([2]; 50 to 500 μM): stimulatory effect increases with the 4-hydroxyisoleucine concentration | pancreatic vascular flow and level of pancreatic glucagon ([2]; during perfusion): no modification | effect on plasma insulin level ([3]; 9 mg/kg I.V.): immediate and particularly important increase | time after injection at which reduction in circulating glucose level becomes significant ([3]; 9 mg/kg I.V.): 15 min | Blood sugar level ([3]; 9 mg/kg I.V., 2 min): 1.26 ± 0.08 g/L | Plasma insulin ([3]; 9 mg/kg I.V., 2 min): 4.4 ± 1.1 ng/mL | Blood sugar level ([3]; 9 mg/kg I.V., 5 min): 1.18 ± 0.04 g/L | Plasma insulin ([3]; 9 mg/kg I.V., 5 min): 9.1 ± 1.0 ng/mL | Blood sugar level ([3]; 9 mg/kg I.V., 15 min): 0.94 ± 0.09 g/L | Plasma insulin ([3]; 9 mg/kg I.V., 15 min): 18.5 ± 1.5 ng/mL | Blood sugar level ([3]; 9 mg/kg I.V., 30 min): 0.99 ± 0.10 g/L | Plasma insulin ([3]; 9 mg/kg I.V., 30 min): 18.6 ± 1.5 ng/mL | Blood sugar level ([3]; 9 mg/kg I.V., 45 min): 0.99 ± 0.12 g/L | Plasma insulin ([3]; 9 mg/kg I.V., 45 min): 14.5 ± 4.8 ng/mL | Blood sugar level ([3]; 9 mg/kg I.V., 60 min): 0.94 ± 0.10 g/L | Plasma insulin ([3]; 9 mg/kg I.V., 60 min): 14.4 ± 4.8 ng/mL | Blood sugar level ([3]; 9 mg/kg I.V., 90 min): 0.89 ± 0.12 g/L | Plasma insulin ([3]; 9 mg/kg I.V., 90 min): 14.9 ± 5.2 ng/mL | Blood sugar level [3, 8]: 1.34 ± 0.07 g/L | Plasma insulin [3, 8]: 3.4 ± 1.1 ng/mL | Blood sugar level [3, 9]: 1.38 ± 0.09 g/L | Plasma insulin [3, 9]: 2.4 ± 0.1 ng/mL | Blood sugar level [3, 10]: 1.32 ± 0.09 g/L | Plasma insulin [3, 10]: 2.8 ± 0.2 ng/mL | reduction in circulating glucose level relative to the starting value ([3]; 9 mg/kg I.V., at the 90th minute): approximately 30% | side effect secondary to the injection (polypnea, tachycardia, hypoxia) ([3]; I.V. injection, anaesthetized rats): no side effect | effect on induced hyperglycaemia ([4]; 9 mg/kg I.V. with glucose 0.3 g/kg I.V.): markedly reduced | Blood sugar level ([4]; 9 mg/kg I.V. with glucose 0.3 g/kg I.V., 3rd minute, glucose alone 282 mg/dl): 204 mg/dL | change in blood sugar level ([4]; 9 mg/kg I.V. with glucose 0.3 g/kg I.V., 3rd minute, glucose alone +112%): +58% | glucose tolerance ([4]; rat, intravenously, summary statement): improves glucose tolerance | duration of hyperinsulinaemia ([5]; fasted): 5 min | effect on blood sugar level ([5]; fasted): gradual and discrete reduction in blood sugar level | rise in blood insulin level ([5]; from the 3rd minute): +277% | Blood sugar level ([6]; 9 mg/kg intragastric with glucose 1 g/kg, 30th minute, glucose alone 166 mg/dl): 120 mg/dL | change in blood sugar level ([6]; 9 mg/kg intragastric with glucose 1 g/kg, 30th minute, glucose alone +85%): +31% | glucose tolerance ([6]; dog, orally, summary statement): improves glucose tolerance | macroscopic deleterious effect on the main organs at autopsy ([7]; 1 gram per kilo intraperitoneal, thymus, heart, lungs, liver, stomach, kidneys, adrenals, pancreas, duodenum, genital tract, bladder): does not appear to disclose any macroscopic deleterious effect | LDo (zero lethal dose) ([7]; intraperitoneal, single dose): greater than 1 gram per kilo | toxic phenomenon over 15 days ([7]; single dose 1 gram per kilo intraperitoneal): does not appear to detect any toxic phenomenon
